The source of these data is article PMC7603405 (Nature, 2020).

“Also recorded” adds a separate entry of the source. Peptide text beside a SMILES is read from it. * marks the point of attachment. Cbz = O=C(OCc1ccccc1)*; CHN2 = [N-]=[N+]=C*

The test system of data set [1] is SARS-CoV-2 USA-WA1/2020. The class given is cell-based.
Data set [2] has as its target SARS-CoV-2 papain-like protease (PLpro) (Severe acute respiratory syndrome coronavirus 2, UniProt P0DTD1). The data set is classed as biochemical. As to conditions: 1 to 50 μM.
Data set [3] addresses SARS-CoV-2 main protease (Mpro) (Severe acute respiratory syndrome coronavirus 2, UniProt P0DTD1). The class given is biochemical. As to conditions: 1 to 50 μM.
The conditions of data set [4]: cited from earlier work.
The test system of data set [5] is SARS-CoV-2 USA-WA1/2020. The data set is classed as cell-based. As to conditions: 2.5 and 1 μM, Vero E6, Table S3.
For another data set, the system named is SARS-CoV-2. The class given is cell-based. To be noted: 5 μM; reversed by RAR antagonist Ro41-5253 5 μM.
Data set [6] relates to SARS-CoV-2 HKU-001a. The data set is classed as cell-based. To be noted: positive control of the screen.
Data set [7] deals with SARS-CoV-2 USA-WA1/2020. Put plainly: Drug synergy quantification with remdesivir in Vero E6 cells. The data set is classed as cell-based.
The next data set deals with COVID-19. To be noted: COVID-19 patients, NIAID trial; cited from earlier work.
The test system of data set [8] is SARS-CoV-2 HKU-001a. The data set is classed as cell-based.
Data set [9] concerns SARS-CoV-2 USA-WA1/2020. Kind of data set: Time-of-addition assay in Vero E6 cells. As to conditions: 2.5 μM. The class given is cell-based.
For data set [10] the following is noted: read-out: Cmax; humans; cited from earlier work.

As for `C[C@@H]1CS/C(=N\NC(=O)C(=O)[C@H](NC(=O)C2CCCCCC2)C2CCOCC2)N1C` [ONO 5334], the “reduction of number of infected cells” value in the data set on SARS-CoV-2 USA-WA1/2020 [1] is given as 72%. In addition, in data set [2], the “inhibitory activity upon PLpro” value is “lack potent inhibitory activity”. Besides, in [3], the “inhibitory activity upon 3CLpro / Mpro” value is “lack potent inhibitory activity”. The “tolerability in phase II clinical trials” value in data set [4] (treatment of osteoporosis) is reported as “well tolerated”.
`COc1cc(C)c(/C=C/C(C)=C/C=C/C(C)=C/C(=O)O)c(C)c1C` [acitretin]: the “validation as inhibitor of SARS-CoV-2 replication” value (“validation as inhibitor” for short) with SARS-CoV-2 USA-WA1/2020 [5] is “validated; also recorded: confirmed to inhibit SARS-CoV-2 replication”.
Still for that read-out and setting: in the case of `CCOC(=O)c1ncc2[nH]c3cccc(OC(C)C)c3c2c1C` [ZK-93426] it was “validated”.
As to `CCOC(=O)c1ccc(C#Cc2ccc3c(c2)C(C)(C)CCS3)nc1` [tazarotene], in the data set with SARS-CoV-2 USA-WA1/2020 [5], the “validation as inhibitor” value was “validated”. Besides, the “effect on viral replication, chemical epistasis” value with SARS-CoV-2 is listed as “inhibition of viral replication”.
Consider `COc1ccc(CCN2CCC(Nc3nc4ccccc4n3Cc3ccc(F)cc3)CC2)cc1` [Astemizole], for which the “validation as inhibitor” value in the data set on SARS-CoV-2 USA-WA1/2020 [5] is given as “confirmed to inhibit SARS-CoV-2 replication”.
Still for that read-out and setting: in the case of `CCN(CC)CCCC(C)Nc1ccnc2cc(Cl)ccc12` (stereo not drawn) [chloroquine] it was “confirmed to inhibit SARS-CoV-2 replication”.
Turning to `CC[C@H](NC(=O)[C@H](CS(=O)(=O)CC1CC1)N[C@@H](c1ccc(F)cc1)C(F)(F)F)C(=O)C(=O)NC1CC1` [VBY-825], the “inhibitory activity upon PLpro” value in [2] is “lack potent inhibitory activity”. Moreover, in data set [3], the “inhibitory activity upon 3CLpro / Mpro” value is given as “lack potent inhibitory activity”.
Turning to `CC(C)CCC(=O)CC1c2ccccc2C(=O)N1c1ccc2ccc(Cl)nc2n1` (stereo not drawn) [pagoclone], the “validation as inhibitor” value in the data set with SARS-CoV-2 USA-WA1/2020 [5] was “validated”.
As to `Cc1cccc(/C=N/Nc2cc(N3CCOCC3)n3nc(-c4ccncc4)cc3n2)c1` [APY0201], the “antiviral activity in CPE assay” value with SARS-CoV-2 HKU-001a [6] is given as “confirmed the potential antiviral activity”.
With `CCN(C(C)=O)c1cccc(-c2ccnc3c(C#N)cnn23)c1` [zaleplon GR], the “validation as inhibitor” value with SARS-CoV-2 USA-WA1/2020 [5] is recorded as “validated”.
As to `COc1ccc2cc1Oc1ccc(cc1)C[C@H]1c3cc(c(OC)cc3CCN1C)Oc1c(OC)c(OC)cc3c1[C@H](C2)N(C)CC3` [Hanfangchin A, Tetrandrine], in the data set on SARS-CoV-2 USA-WA1/2020 [5], the “validation as inhibitor” value is given as “validated”. The “synergy with remdesivir” value in the data set on SARS-CoV-2 USA-WA1/2020 [7] is reported as “notable levels of synergy with remdesivir”.
`CC1(C)CCC(C)(C)c2cc(NC(=O)c3ccc(C(=O)O)cc3)ccc21` [tamibarotene]: the “validation as inhibitor” value with SARS-CoV-2 USA-WA1/2020 [5] is on record as “validated”.
On the same count and under the same terms, in the case of `CC(/C=C/C=C(\C)c1cc(C(C)(C)C)cc(C(C)(C)C)c1)=C\C(=O)O` [LGD-1550] it was “validated”.
Turning to `CCC(CC)COC(=O)[C@H](C)N[P@](=O)(OC[C@H]1O[C@@](C#N)(c2ccc3c(N)ncnn23)[C@H](O)[C@@H]1O)Oc1ccccc1` [Remdesivir], the “improved time to recovery in treated patients” value in the data set with COVID-19 is listed as 47%.
The Cmax is the maximum level reached in the sampled fluid or tissue. `Cc1cccc(/C=N/Nc2cc(N3CCOCC3)nc(OCCc3ccccn3)n2)c1` [Apilimod]: the “antiviral activity in ex vivo lung culture” value in the data set on SARS-CoV-2 HKU-001a [8] was “potently antagonizes viral replication”. The “step of viral life cycle inhibited, time of addition” value in the data set on SARS-CoV-2 USA-WA1/2020 [9] is reported as “inhibit viral replication during entry”. Moreover, the “reduction of number of infected cells” value in the data set on SARS-CoV-2 USA-WA1/2020 [1] turned out to be 85%. Also, the peak concentration (Cmax) in data set [10] is 265 nM. For the same compound, in [4] (well tolerated), the “doses showing a desirable safety profile in humans” value is on record as at most 125 mg BID.
For the compound `CC1=C(/C=C/C(C)=C/C=C/C(C)=C/C(=O)O)C(C)(C)CCC1` [tretinoin], the “validation as inhibitor” value in the data set with SARS-CoV-2 USA-WA1/2020 [5] is “validated”.
For the compound `CCN(CC)CCCNc1ccnc2cc(Cl)ccc12` [AQ-13], the “validation as inhibitor” value in the data set with SARS-CoV-2 USA-WA1/2020 [5] is reported as “validated”.
For `COc1cc(F)cc2c1-c1ccc(F)cc1C21NC(=O)NC1=O` (stereo not drawn) [AL 3152], the “validation as inhibitor” value with SARS-CoV-2 USA-WA1/2020 [5] was “validated”.
Turning to `CC(C)CC(NC(=O)OCc1ccccc1)C(=O)NC(C(=O)NCC(=O)C=[N+]=[N-])C(C)C` (stereo not drawn) [Z LVG CHN2] (Cbz-Leu-Val-Gly-CHN2; configuration not given here), the “inhibitory activity upon PLpro” value in data set [2] is recorded as “lack potent inhibitory activity”. Moreover, the “inhibitory activity upon 3CLpro / Mpro” value in data set [3] is reported as “lack potent inhibitory activity”.
For MDL 28170, the “reduction of number of infected cells” value with SARS-CoV-2 USA-WA1/2020 [1] is 65%. Besides, the “inhibitory activity upon PLpro” value in data set [2] is listed as “lack potent inhibitory activity”. For the same compound, the “inhibitory activity upon 3CLpro / Mpro” value in data set [3] is recorded as “lack potent inhibitory activity”.
